Data set [1] has as its system classical complement pathway. Nature of the data set: In vitro haemolysis assay (inhibition of classical complement pathway). It is filed as cell-based, human. As to conditions: human serum, sensitized sheep red blood cells. In a few lines: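 Serially diluted compound (9 points) was preincubated 15 min at room temperature with diluted human serum, titrated per batch to give 70-90% maximal haemolysis, in Tris/casein buffer pH 7.4 with Mg2+/Ca2+. Antibody-sensitized sheep erythrocytes were then added for 30 min at 37° C, and the reaction was stopped with EDTA. Haemolysis was read at A405, with IC50 from 4PL fit.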

A short description of data set [2]: Solubility test at 10 mg/mL (visual inspection and light scattering). It is filed as physicochemical. Conditions: for Solubility, Condition 1 Acetate pH 4: 10 mg/mL compound in 100 mM acetate pH 4; for Solubility, Condition 2 Acetate pH 5: 10 mg/mL compound in 100 mM acetate pH 5; for Solubility, Condition 3 Phosphate pH 6: 10 mg/mL compound in 100 mM phosphate pH 6; for Solubility, Condition 4 Phosphate pH 7: 10 mg/mL compound in 100 mM phosphate pH 7; for Solubility, Condition 5 Phosphate pH 7.5: 10 mg/mL compound in 100 mM phosphate pH 7.5. As to the method:
The solubility of compounds was assessed by measuring light scattering over a pH interval from pH 4 to pH 7.5.
Compounds were dissolved in a stock solution of 20 mg/mL in H2O at pH 2.5 or pH 10.
These stock solutions were diluted 1:1 with 200 mM buffered solution to reach a final solution of 10 mg/mL compound in 100 mM buffer. The 5 investigated conditions were (1) acetate pH 4.0, (2) acetate pH 5.0, (3) phosphate pH 6.0, (4) phosphate pH 7 and (5) phosphate pH 7.5.
Visual inspection included manually checking the 96 well plate for wells that are clear or non-clear. In addition to this a picture of the 96 well plate is taken.
Absorbance was measured at four wavelengths: 280 nm, 325 nm, 340 nm and 360 nm in an UV transparent 96 well microplate in a SpectraMax 190 microplate reader (Molecular Devices).
The criteria for this was a combination of visual inspection and light scattering not exceeding 0.1 AU, where values below 0.1 AU are good in visually clear samples. […]

The mark [3] stands for this setting: Table 3, read-out: IC50[nM], in vitro analysis of inhibition of hemolysis.

The structures appear in SMILES notation. Like-named read-outs stand apart in the source and are kept apart here. Positions of bridges follow the written chain, without caps; N, C: chain ends. Non-standard residues stand in square brackets, D forms with d. Residues, ends and D or L forms follow the SMILES beside them. Trp(1-Me) = Cn1cc(C[C@H](N)C(=O)O)c2ccccc21; Sar = CNCC(=O)O

For `CC[C@H](C)[C@H](NC(=O)[C@H](C)NC(=O)[C@H](CO)NC(C)=O)C(=O)N[C@H]1CSSC[C@@H](C(=O)N(C)CC(=O)N[C@@H](CCC(=O)O)C(N)=O)NC(=O)[C@H](CCCNC(=N)N)NC(=O)[C@H](Cc2c[nH]cn2)NC(=O)[C@H](CCC(=O)O)NC(=O)CNC(=O)[C@H](Cc2c[nH]c3ccccc23)NC(=O)[C@H](CC(=O)O)NC(=O)[C@H](CCC(N)=O)NC(=O)[C@H](Cc2c[nH]c3ccccc23)NC(=O)[C@H]([C@@H](C)CC)NC1=O` [Compound 41] (Ac-SAICIWQDWGEHRC[Sar]E-NH2; disulfide 4-14), the IC50 in data set [1] (setting [3]) is below 250 nM. For the same compound, in data set [2], the “Solubility, Condition 1 Acetate pH 4” value is listed as “− (denotes lack of solubility at the given condition, as UV absorbance at 340 nm exceeds 0.1 AU and/or it is visibly turbid or contains particles.)”; the “Solubility, Condition 2 Acetate pH 5” value is “− (denotes lack of solubility at the given condition, as UV absorbance at 340 nm exceeds 0.1 AU and/or it is visibly turbid or contains particles.)”; the “Solubility, Condition 3 Phosphate pH 6” value was “+ (denotes solubility at the given condition, as determined by UV absorbance being less than 0.1 AU at 340 nm and the sample being clear when manually inspected.)”; the “Solubility, Condition 4 Phosphate pH 7” value is “+ (denotes solubility at the given condition, as determined by UV absorbance being less than 0.1 AU at 340 nm and the sample being clear when manually inspected.)”. In data set [2], the “Solubility, Condition 5 Phosphate pH 7.5” value was “+ (denotes solubility at the given condition, as determined by UV absorbance being less than 0.1 AU at 340 nm and the sample being clear when manually inspected.)”.

Regarding `CC[C@H](C)[C@@H]1NC(=O)[C@@H](NC(=O)[C@H](Cc2ccccc2)NC(=O)[C@H](CCC(=O)O)NC(=O)[C@H](CO)NC(C)=O)CSSC[C@@H](C(=O)N(C)CC(=O)N[C@@H](CCC(=O)O)C(N)=O)NC(=O)[C@H](CCCNC(=N)N)NC(=O)[C@H](Cc2c[nH]cn2)NC(=O)[C@H](CCC(=O)O)NC(=O)CN(C)C(=O)[C@H](Cc2c[nH]c3ccccc23)NC(=O)[C@H](CC(=O)O)NC(=O)[C@H](CCC(N)=O)NC(=O)[C@H](Cc2cn(C)c3ccccc23)NC1=O` [Compound 79, Ac-SEFC(1)I[1-Me-Trp]QDW[Sar]EHRC(1)[Sar]E-NH2] (Ac-SEFCI[Trp(1-Me)]QDW[Sar]EHRC[Sar]E-NH2; disulfide 4-14), in data set [1] (setting [3]), the IC50 was below 100 nM. Besides, in data set [2], the “Solubility, Condition 1 Acetate pH 4” value was “− (denotes lack of solubility at the given condition, as UV absorbance at 340 nm exceeds 0.1 AU and/or it is visibly turbid or contains particles.)”; the “Solubility, Condition 2 Acetate pH 5” value was “− (denotes lack of solubility at the given condition, as UV absorbance at 340 nm exceeds 0.1 AU and/or it is visibly turbid or contains particles.)”; the “Solubility, Condition 3 Phosphate pH 6” value was “+ (denotes solubility at the given condition, as determined by UV absorbance being less than 0.1 AU at 340 nm and the sample being clear when manually inspected.)”; the “Solubility, Condition 4 Phosphate pH 7” value was “+ (denotes solubility at the given condition, as determined by UV absorbance being less than 0.1 AU at 340 nm and the sample being clear when manually inspected.)”. For the same compound, in data set [2], the “Solubility, Condition 5 Phosphate pH 7.5” value is “+ (denotes solubility at the given condition, as determined by UV absorbance being less than 0.1 AU at 340 nm and the sample being clear when manually inspected.)”.

Turning to `CC[C@H](C)[C@H](NC(C)=O)C(=O)N[C@H]1CSSC[C@@H](C(=O)N[C@@H](CCC(=O)O)C(=O)NCC(=O)N[C@@H](CCC(=O)O)C(N)=O)NC(=O)[C@H](CCCNC(=N)N)NC(=O)[C@H](Cc2c[nH]cn2)NC(=O)[C@H](CCC(=O)O)NC(=O)CNC(=O)[C@H](Cc2c[nH]c3ccccc23)NC(=O)[C@H](CC(=O)O)NC(=O)[C@H](CCC(N)=O)NC(=O)[C@H](Cc2c[nH]c3ccccc23)NC(=O)[C@H]([C@@H](C)CC)NC1=O` [Compound 27] (Ac-ICIWQDWGEHRCEGE-NH2; disulfide 2-12), the IC50 in data set [1] (setting [3]) was below 100 nM. For the same compound, in data set [2], the “Solubility, Condition 1 Acetate pH 4” value was “− (denotes lack of solubility at the given condition, as UV absorbance at 340 nm exceeds 0.1 AU and/or it is visibly turbid or contains particles.)”; the “Solubility, Condition 2 Acetate pH 5” value was “− (denotes lack of solubility at the given condition, as UV absorbance at 340 nm exceeds 0.1 AU and/or it is visibly turbid or contains particles.)”; the “Solubility, Condition 3 Phosphate pH 6” value was “− (denotes lack of solubility at the given condition, as UV absorbance at 340 nm exceeds 0.1 AU and/or it is visibly turbid or contains particles.)”; the “Solubility, Condition 4 Phosphate pH 7” value is “+ (denotes solubility at the given condition, as determined by UV absorbance being less than 0.1 AU at 340 nm and the sample being clear when manually inspected.)”. Further, the “Solubility, Condition 5 Phosphate pH 7.5” value in data set [2] is “+ (denotes solubility at the given condition, as determined by UV absorbance being less than 0.1 AU at 340 nm and the sample being clear when manually inspected.)”.

Take `CC[C@H](C)[C@@H]1NC(=O)[C@@H](NC(=O)[C@H](Cc2ccccc2)NC(=O)[C@H](CCC(=O)O)NC(=O)[C@H](CO)NC(C)=O)CSSC[C@@H](C(=O)N(C)CC(=O)N[C@@H](CCC(=O)O)C(N)=O)NC(=O)[C@H](CCCNC(=N)N)NC(=O)[C@H](Cc2c[nH]cn2)NC(=O)[C@H](CCC(=O)O)NC(=O)CNC(=O)[C@H](Cc2c[nH]c3ccccc23)NC(=O)[C@H](CC(=O)O)NC(=O)[C@H](CCC(N)=O)NC(=O)[C@H](Cc2cn(C)c3ccccc23)NC1=O` [Compound 78] (Ac-SEFCI[Trp(1-Me)]QDWGEHRC[Sar]E-NH2; disulfide 4-14): the 50% inhibitory concentration (IC50) in data set [1] (setting [3]) is below 100 nM. In data set [2], the “Solubility, Condition 1 Acetate pH 4” value is on record as “− (denotes lack of solubility at the given condition, as UV absorbance at 340 nm exceeds 0.1 AU and/or it is visibly turbid or contains particles.)”; the “Solubility, Condition 2 Acetate pH 5” value is on record as “− (denotes lack of solubility at the given condition, as UV absorbance at 340 nm exceeds 0.1 AU and/or it is visibly turbid or contains particles.)”; the “Solubility, Condition 3 Phosphate pH 6” value is “+ (denotes solubility at the given condition, as determined by UV absorbance being less than 0.1 AU at 340 nm and the sample being clear when manually inspected.)”; the “Solubility, Condition 4 Phosphate pH 7” value is “+ (denotes solubility at the given condition, as determined by UV absorbance being less than 0.1 AU at 340 nm and the sample being clear when manually inspected.)”. Besides, the “Solubility, Condition 5 Phosphate pH 7.5” value in data set [2] is “+ (denotes solubility at the given condition, as determined by UV absorbance being less than 0.1 AU at 340 nm and the sample being clear when manually inspected.)”.

With `CC[C@H](C)[C@H](NC(C)=O)C(=O)N[C@H]1CSSC[C@@H](C(=O)N[C@H](C(N)=O)[C@@H](C)O)NC(=O)[C@H](CCCNC(=N)N)NC(=O)[C@H](Cc2c[nH]cn2)NC(=O)[C@H](C)NC(=O)CNC(=O)[C@H](Cc2c[nH]c3ccccc23)NC(=O)[C@H](CC(=O)O)NC(=O)[C@H](CCC(N)=O)NC(=O)[C@H](Cc2c[nH]c3ccccc23)NC(=O)[C@H]([C@@H](C)CC)NC1=O` [Compound 1] (Ac-ICIWQDWGAHRCT-NH2; disulfide 2-12), the half-inhibitory concentration (IC50) in data set [1] (Table 2, read-out: CP hemolysis IC50) was 150 nM. Moreover, the IC50 in data set [1] (setting [3]) was below 250 nM. Further, in data set [2], the “Solubility, Condition 1 Acetate pH 4” value was “+ (denotes solubility at the given condition, as determined by UV absorbance being less than 0.1 AU at 340 nm and the sample being clear when manually inspected.)”; the “Solubility, Condition 2 Acetate pH 5” value is reported as “− (denotes lack of solubility at the given condition, as UV absorbance at 340 nm exceeds 0.1 AU and/or it is visibly turbid or contains particles.)”; the “Solubility, Condition 3 Phosphate pH 6” value is listed as “− (denotes lack of solubility at the given condition, as UV absorbance at 340 nm exceeds 0.1 AU and/or it is visibly turbid or contains particles.)”; the “Solubility, Condition 4 Phosphate pH 7” value is recorded as “− (denotes lack of solubility at the given condition, as UV absorbance at 340 nm exceeds 0.1 AU and/or it is visibly turbid or contains particles.)”. In data set [2], the “Solubility, Condition 5 Phosphate pH 7.5” value is “− (denotes lack of solubility at the given condition, as UV absorbance at 340 nm exceeds 0.1 AU and/or it is visibly turbid or contains particles.)”.

What is called IC50 is the concentration at which inhibition is half-maximal.

(Values after US20220306695A1, “COMPSTATIN ANALOGUES AND THEIR MEDICAL USES” (priority 2019, published 2022).)
